# Values joined by “and” are separate entries in the source; they are usually repeats but may differ in a detail not shown here. Equal entries are not always repeated.
# Target: T1, human leukocyte 5-lipoxygenase (Homo sapiens, UniProt P09917)
# T1 construct: endogenous in cells; host or cells: leukocytes from fresh blood of normal adult men
# T1 sequence (P09917 1-674): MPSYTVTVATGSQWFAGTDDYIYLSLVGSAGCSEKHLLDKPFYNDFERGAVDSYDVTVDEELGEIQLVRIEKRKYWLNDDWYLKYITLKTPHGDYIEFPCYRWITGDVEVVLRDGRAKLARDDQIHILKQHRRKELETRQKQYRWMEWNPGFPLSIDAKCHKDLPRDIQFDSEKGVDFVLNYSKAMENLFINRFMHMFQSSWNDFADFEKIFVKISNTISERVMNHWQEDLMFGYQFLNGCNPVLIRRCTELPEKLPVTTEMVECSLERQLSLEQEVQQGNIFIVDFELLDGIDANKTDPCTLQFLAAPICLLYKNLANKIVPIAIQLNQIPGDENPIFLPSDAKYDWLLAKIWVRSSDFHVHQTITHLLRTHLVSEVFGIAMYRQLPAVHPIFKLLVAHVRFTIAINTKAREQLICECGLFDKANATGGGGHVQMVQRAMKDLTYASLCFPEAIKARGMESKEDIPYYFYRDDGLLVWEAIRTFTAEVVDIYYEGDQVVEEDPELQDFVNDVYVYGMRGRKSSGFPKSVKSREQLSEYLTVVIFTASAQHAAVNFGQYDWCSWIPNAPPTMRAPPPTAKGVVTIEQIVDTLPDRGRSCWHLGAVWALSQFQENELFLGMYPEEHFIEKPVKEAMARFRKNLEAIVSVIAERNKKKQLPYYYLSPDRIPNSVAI
# Assay: 5-Lipoxygenase inhibition in human leukocytes, 5-HETE formation (5LOA1, 5LOA in Table 6)
# Assay type: cell-based
# Conditions: 50% inhibition of 5-HETE formation, E -number means X 10^-no., read-out: IC50 (5LOA)
# Text: To Evaluate the Effect of Each Compounds as a 5-Lipoxygenase Inhibitor in Comparison to Standard Reference Agents in Human Leukocytes (5LOAl)
# The purpose of this assay is to evaluate the activity of each compound as an inhibitor of human leukocyte 5-lipoxygenase.
# Arachidonic acid and calcium ionophore A23187 are obtained from Sigma (St. Louis, MO). Silica gel plates, GF are obtained from Analtech (Newark, DE). Arachidonic acid, (1-^14 C) and 5-HETE (^3 H), 5-(S)-hydroxy-6-trans, 8,11,14-cis eicosatetraenoic acid, are obtained from New England Nuclear (Boston, MA). Six percent Dextran-70 in 0.9% NaCl is obtained from Cuffer Labs (Berkeley, CA).
# Preparation of Leukocytes
# Fresh blood from normal adult men who had not received any drugs for at least the previous five days is obtained by the Community Research Clinic (WL/PD) using venipuncture and collected into heparinized vacuotainer tubes. To every 100 ml of pooled blood is added 25 ml of dextran solution (6% dextran -70 in 0.9% sodium chloride containing 3% dextrose) and this is mixed gently in a plastic cylinder. The mixture is left to stand at room temperature for at least 90 minutes. The upper layer which is rich in leukocytes and platelets is then carefully decanted into 50 ml plastic tubes and centrifuged at about 100×g for eight minutes in and IEC centrifuge and rotor number 269 (about 600 rpm). The supernatant fluid is discarded and the pellet is resuspended in 10 ml of 0.87% ammonium chloride for exactly two minutes. This procedure is to lyse completely contaminating red blood cells. Leukocytes are then separated by centrifugation for ten minutes. The pellet is washed three times by suspension in 20 ml PBS (sodium chloride, 7.1 g; Na2 HPO4, 1.15 g; KH2 PO4,0.2 g, and KCl, 0.2 g/L) and centrifuged as before. The final pellet is suspended in PBS containing 0.87 mM CaCl2. Viability of the cells is then checked using trypan blue exclusion method and is found to be over 90%.
# 5-Lipoxygenase Enzyme Assay
# Leukocyte cells in suspension (0.98 ml) are incubated with or without test compounds for five minutes at 37° C. in a shaking water bath. At this time a […] mixture is perpared per 1 ml of cell suspension: 100 mM arachidonic acid, 1 μl, 0.05 μCi ^14 C-arachidonic acid in 5 μl; 1 mM calcium ionophore A23187, 10 μl (1). This mixture is added and the incubation continued for five minutes. The reaction is stopped by adding four volumes of absolute ethanol and the mixture is kept in ice for 30 minutes. The floculated precipitate is separated by centrifugation at about 37,000×g for 20 minutes (Beckman Instruments rotor number 40). The alcohol extract is taken to dryness under a stream of nitrogen and the residue is dissolved in 100-200 μl absolute ethanol. At the time any turbidity is removed by centrifugation. An aliquot (25-50 μl) is applied onto 20×20 cm silica gel TLC plate and developed using the following solvent system: diethyl ether, petroleum ether (2040°C.),acetic acid (50:50: 1 v/v). Zones of 1 cm apart are scraped from the TLC plate and transferred to mini-vials. Methanol (0.5 ml) is added to dissolve the radioactivity adsorbed to the silica gel and scintillation fluid (H. P., Beckman), 5 ml is then added and vials are counted in a liquid scintillation counter. A sample of ^3 H-5-HETE is applied and used for the identification of the formed 5-HETE. Total radioactivity in the test as well as the control samples are normalized and the amount of 5-HETE present is calculated accordingly.
# IC50 values are defined as the concentrations of test agents which caused a 50% inhibition of the formation of 5-HETE as compared to control and are determined by inspection of the concentration-response curves.
row,SMILES,IC50
1,"COc1ccc(C(=O)Nc2ccc(CCc3ccc(O)c(O)c3)cc2)c(O)c1 [Example 8, N-[4-[2-(3,4-Dihydroxyphenyl)ethyl]phenyl]-2-hydroxy-4-methoxybenzamide]",7.1 µM
2,O=C(Nc1ccc(CCc2ccc(Cl)c(Cl)c2)cc1)c1cccc(Cl)c1O [Example 34],39.2 µM
3,Cc1ccc(C(=O)N(C)c2ccc(CCc3ccc(O)c(O)c3)cc2)c(O)c1 [Example 43],5.3 µM
4,"COc1ccc(CCc2ccc(NC(=O)c3ccccc3O)cc2)cc1OC [Example 48, N-[4-[2-(3,4-dimethoxyphenyl)ethyl]phenyl]-2-hydroxybenzamide]",4.2 µM and 3.5 µM
5,"COc1ccc(CCc2ccc(N(C)C(=O)C(=O)c3ccccc3O)cc2)cc1OC [Example 51, N-Methyl-N-[4-(2-(3,4-dimethoxyphenyl)ethyl)phenyl]-2-hydroxy-α-oxo-benzeneacetamide]",11.1 µM
6,"COc1ccc(CCc2ccc(NC(=O)C(=O)c3ccccc3O)cc2)cc1OC [Example 52, N-[4-(2-(3,4-dimethoxyphenyl)ethyl)phenyl]-2-hydroxy-α-oxo-Benzeneacetamide]",5 µM
7,"O=C(Nc1ccc(CCc2ccc(O)c(O)c2)cc1)C(=O)c1ccccc1O [Example 53, N-[4-[2-(3,4-dihydroxyphenyl)ethyl]-phenyl]-2-hydroxy-α-oxo-benzeneacetamide]",3.38 µM
8,"CC(C)(C)c1cccc(C(=O)C(=O)Nc2ccc(CCc3ccc(O)c(O)c3)cc2)c1O [Example 55, N-[4-[2-(3,4-dihydroxyphenyl)ethyl]phenyl]-3-(1,1-dimethylethyl)-2-hydroxy-α-oxobenzenacetamide]",7.1 µM and 8.17 µM

# Same assay, conditions: IC50 (5LOA), 50% inhibition of 5-HETE formation, E -number means X 10^-no.
row,SMILES,IC50 [µM]
1,"CCCCCCCCCCc1ccc(NC(=O)c2cc([N+](=O)[O-])ccc2O)cc1 [Example 21, N-(4-n-decylphenyl)-2-hydroxy-5-nitro-benzamide]",20.8

# Test system: Human Leukocyte Lipoxygenase
# Assay: Human Leukocyte Lipoxygenase Assay (LDA-H / LDAH)
# Assay type: biochemical
# Conditions: 2.50 E -5 M
# Description: Human Leukocyte Lipoxygenase Assay (LDA-H)
# Whole blood is collected from normal volunteers and spun in a refrigerated centrifuge for four minutes at 1°-6° C. at 3800 g. The buffy coat is manually separated and washed twice with chilled 0.83% NH4 Cl and centrifuged at 1000 RPM for ten minutes at 4° C. The white cell is suspended in culture media-EMEM supplemented with 6% Agamma human serum, tricine buffer, and neomycin and recentrifuged at 1000 g to yield a pellet containing the leukocytes used for the preparation of the acetone pentane powder.
# The acetone-pentane powder is prepared utilizing a modification of the procedure reported for human platelet lipoxygenase. See Siegel, et al, Arachidonate Metabolism via Lipoxygenase and 12-L-hydroperoxy-5-Eicostetraenoic acid Peroxidase Sensitive to Antiinflammatory Drugs, Proc. Natl. Acad. Sci., USA 77:308, 1980 and D. P. Wallach and V. R. Brown, a novel Preparation of Human Platlet Lipoxygenase, Biochem. Biophys. Acta. 663:361, 1981. Buffy coat prepared above is resuspended in 5-7 volumes of cold 0.1M Tris buffer, pH 7.4 containing 0.154M NaCl. The suspension is centrifuged at 13,300 g for ten minutes at 4° C. The resultant pellet was retained, resuspended in five volumes of cold acetone, recentrifuged at 13,300 g and resuspended in five volumes of cold pentane. The pentane suspension is centrifuged for ten minutes at 13,300 g to give a pellet which is dried in the cold under vacuum with periodic pulverization. The dry powder is stable for several weeks when stored at -88° C.
# Enzyme stock solution is prepared in the following manner. About 15 mg of the acetone-pentane powder sis suspended in 4 ml of cold tris buffer (0.1M, pH 7.4), allowed to stand for five minutes, and homogenized thorougly. The homogenate is sonicated three times for 15 seconds each time, diluted to 7 ml with cold tris buffer (0.1M, pH 7.4), and centrifuged at 4° C. for 60 minutes at 13,300 g. The supernatent is retained and diluted to a total of 10 ml with cold tris buffer (0.1M, pH 7.4) to give the stck enzyme solution. Additional dilutions of 2-50 fold are done as necessary to locate optimal enzyme reaction rate in the assay described below.
# Substrate solution is prepared at 100 μM or 1.0 μM concentrations of arachidonic acid or linoleic acid in 0.1M tris buffer, pH 9.0 containing 20% ethanol.
# The enzyme reaction is followed spectrophotometrically by the appearance of a conjugated diene product at 234 nm. The reaction is monitored at 24° C. using a Gilford Model 2600 spectrophotometer. […] The effects of inhibitors on the reaction are compared with control reactions run under indentical conditions. Routinely, each compounds of the present invention is incubated with the enzyme for five minutes prior to addition of substrate to initiate the reaction. Inhibition expressed as IC50 as molar concentration of the compound required to reduce reaction rate to 50% control.
row,SMILES,% Inhibition (LDAH) [%]
1,CCCCCCCCCCc1ccc(NC(=O)c2cc(Br)ccc2O)cc1 [Example 12],0.0
2,CCCCCCCCCCc1ccc(NC(=O)c2ccccc2O)cc1 [Example 13],0.0
3,COc1ccc(CCc2ccc(NC(=O)c3cc4ccccc4cc3O)cc2)cc1OC [Example 38],0.0
4,"CCCCCCCCCCc1ccc(NC(=O)c2cc3ccccc3cc2O)cc1 [Example 49, 2-Naphthalenecarboxamide, N-(4-decylphenyl)-3-hydroxy]",0.0

# The next lines start with the values.
row,% Inhibition (LDAH) [%],SMILES
1,0.0,O=C(Nc1ccc(CCc2ccc(Cl)c(Cl)c2)cc1)c1ccc(Cl)cc1O [Example 36]
2,0.0,"O=C(Nc1ccc(CCc2ccc(O)c(O)c2)cc1)c1ccccc1O [Example 47, Benzamide, N-[4-[2-(3,4-dihydroxyphenyl)ethyl]phenyl]-2-hydroxy]"
3,0.0,"COc1ccc(CCc2ccc(NC(=O)c3ccccc3O)cc2)cc1OC [Example 48, N-[4-[2-(3,4-dimethoxyphenyl)ethyl]phenyl]-2-hydroxybenzamide]"

# Same assay, conditions: 8.00 E -5 M
row,SMILES,% Inhibition (LDAH) [%]
1,CCCCCCCCCCc1ccc(NC(=O)c2c(O)cccc2O)cc1 [Example 25],0.0

# Same assay, conditions: 50% reduction of reaction rate vs control, E -number means X 10^-no.
row,SMILES,IC50 [µM]
1,CCCCCCCCCCc1ccc(NC(=O)c2ccc(Cl)cc2O)cc1 [Example 7],2.8
2,CCCCCCCCCCc1ccc(NC(=O)c2cccc(C)c2O)cc1 [Example 22],0.68

# Second part, the compound after the results:
row,IC50 [µM],SMILES
1,4.1,COc1ccc(CCc2ccc(NC(=O)c3cccc(Cl)c3O)cc2)cc1OC [Example 23]
2,24,COc1cc(CCc2ccc(NC(=O)c3ccc(C)cc3O)cc2)ccc1O [Example 26]
3,0.184,"COc1ccc(CCc2ccc(NC(=O)C(=O)c3ccccc3O)cc2)cc1OC [Example 52, N-[4-(2-(3,4-dimethoxyphenyl)ethyl)phenyl]-2-hydroxy-α-oxo-Benzeneacetamide]"
4,17,"O=C(Nc1ccc(CCc2ccc(O)c(O)c2)cc1)C(=O)c1ccccc1O [Example 53, N-[4-[2-(3,4-dihydroxyphenyl)ethyl]-phenyl]-2-hydroxy-α-oxo-benzeneacetamide]"
5,0.28,"COc1ccc(CCc2ccc(NC(=O)C(=O)c3cccc(C(C)(C)C)c3O)cc2)cc1OC [Example 54, N-[4-[2-(3,4-dimethoxyphenyl)ethyl]phenyl]-3-(1,1-dimethylethyl)-2-hydroxy-α-oxo-benzeneacetamide]"
6,3.9,"CC(C)(C)c1cccc(C(=O)C(=O)Nc2ccc(CCc3ccc(O)c(O)c3)cc2)c1O [Example 55, N-[4-[2-(3,4-dihydroxyphenyl)ethyl]phenyl]-3-(1,1-dimethylethyl)-2-hydroxy-α-oxobenzenacetamide]"
7,120,"COc1ccc(CCc2ccc(NC(=O)C(=O)c3cccc(Cl)c3O)cc2)cc1OC [Example 60, 3-chloro-N-[4-[2-(3,4-dimethoxyphenyl)ethy]-phenyl]-2-hydroxy-α-oxo-benzenacetamide]"
